Results on four compounds are retold here after publication PMC7114229 (Antiviral Research, 2019).

The nature of data set [1]: in vitro. Conditions: human.
In a further data set the target is gp120 (Human immunodeficiency virus type 1 group M subtype B, UniProt P03375). The data set is described as follows: biochemical. Type of data set: binding, HIV.
The next data set deals with HIV-2 (ROD). The data set is described as follows: Anti-HIV-2 activity in MT-4 cell cultures.
A further data set deals with HIV-1 (NL4.3). The data set is described as follows: Anti-HIV-1 activity in MT-4 cell cultures.
Data set [2] in a line: in vitro. Conditions: human. This is another data set of the same source.
The test system of data set [3] is EV71 BrCr laboratory-adapted strain. The data set is described as follows: Anti-EV71 assay, BrCr laboratory-adapted strain in RD cells. Conditions: Enterovirus A.
The test system of data set [4] is EV71 VP1_S184T_ P246S (RES). Type of data set: cell-based.
A further data set has as its system MT-4 cells. Conditions: read-out: CC50 (MT-4); MT-4 cultures; host cell viability.

Where two headings read alike, the source gives them in different places.

For orientation: EC50 means the concentration that produces a half-maximal response. `CN[C@@H]1[C@H](O[C@@H]2OC[C@@H](O)[C@H](O)[C@H]2O)[C@@H](O)[C@H](O[C@H]2c3cc(C)c(C(=O)N[C@H](C)C(=O)O)c(O)c3-c3c(cc4c(c3O)C(=O)c3cc(OC)cc(O)c3C4=O)[C@@H]2O)O[C@@H]1C` [PRM-A, pradimycin A] yielded a CC50 in the data set “in vitro [1]” of over 100 µM. Further, the Kd amounted to 6.92e-06 M at gp120 (KD (10^−6) (M), apparent KD, SPR, three replicates) and 6.9e-06 M on gp120 (apparent KD for binding to gp120, SPR). Moreover, the kon on gp120 (read-out: Ka (10^3) (1/M.s)) came out at 2760 ± 1000 M⁻¹ s⁻¹. Moreover, the half-maximal effective concentration (EC50) amounted to 5.9 ± 3.7 µM in the data set with HIV-2 (ROD) (Human immunodeficiency virus 2, MT4, read-out: HIV-2 EC50) and 3.3 ± 1.2 µM in the data set with HIV-1 (NL4.3) (Human immunodeficiency virus 1, MT4, read-out: HIV-1 EC50).
One may read the EC90 as the concentration needed for an effect of 90%. In “in vitro [2]”, `CCOC(=O)c1ccc(OCCC2CCN(c3ccc(C)nn3)CC2)cc1` [Pirodavir, pirodavir] gave a CC50 of over 100 µM. For the same compound, the EC90 in data set [3] (EV71, RD, read-out: EV71 EC90) is 0.6 ± 0.2 µM.
For `CCOC(=O)/C=C/[C@H](C[C@@H]1CCNC1=O)NC(=O)[C@@H](CC(=O)[C@@H](NC(=O)c1cc(C)on1)C(C)C)Cc1ccc(F)cc1` [Rupintrivir, rupintrivir], the “antiviral activity against the mutant virus strain” value in data set [4] (EV-71 variant (RES)) is reported as “retained full antiviral activity”. The half-maximal effective concentration (EC50) turned out to be 0.016 ± 0.006 µM in data set [4] (read-out: VP1_S184T_ P246S (RES) EC50) and 0.014 ± 0.004 µM in data set [3] (EV71|EVA71, RD, read-out: EV-A71 BrCr (WT) EC50).
Consider dextran sulfate-5000 [DS-5000], for which the CC50 in the data set with MT-4 cells is over 20 µM. In addition, the EC50 with HIV-2 (ROD) (read-out: HIV-2 EC50, MT-4 cultures, inhibition of virus-induced cytopathicity by 50%) was found to be 0.03 ± 0.01 µM; with HIV-1 (NL4.3) (read-out: HIV-1 EC50, MT-4 cultures, inhibition of virus-induced cytopathicity by 50%), 0.07 ± 0.02 µM.
